Assays:
[1] = tested on: HCMV Towne entry into HFFs; experiment: HCMV entry, indirect immunofluorescence assay for pp65; format: cell-based; settings: pretreatment 24 h: MLS8969 3 μM, Heparin 30 μM, GCV 5 μM; IFA 2 hpi
Description: HCMV entry and indirect immunofluorescence assay: MLS8969, GCV and heparin control were used to determine inhibition of HCMV entry. Compounds were diluted in serum-free media and added to HFFs seeded on chamber slides 24 h prior to infection. After infection (MOI 1 or 0.1 PFU/cell) for 2 h, cells were fixed with 100% chilled methanol, blocked for 1 h with phosphate-buffered saline (PBS), 5% serum, 0.3% Triton X-100. Cells were then incubated with mouse monoclonal anti-pp65 antibody, 1:50 (Vector Laboratories, Burlingame, CA) at 37° C. in humidified chambers for 1 h, washed three times with TBST (0.1%), incubated with rhodamine-conjugated anti-mouse IgG, 1:500 (Sigma) at 37° C. in humidified chambers for 1 h and washed with TBST (0.1%). A drop of mount oil containing DAPI (Santa Cruz Biotechnology, Santa Cruz, CA) was added to the slides before visualization with a Zeiss ZI fluorescence microscope. Images were captured at 40× magnification.

in vitro = settings: human
Description: Cytotoxicity assay: MTT assay was performed as described by manufacturer's instructions (Sigma-Aldrich). Non-infected cells were treated with compounds for 72 h or 10 days (same time points of the antiviral assay), and 20 μL/well of MTT [3-(4, 5-Dimethyl-2-thiazolyl)-2, 5-diphenyl-2H-tetrazolium bromide], 5 mg/mL in phosphate buffered saline (PBS)] was added to each well. After shaking at 150 rpm for 5 min the plates were incubated at 37° C. for 2-3 h. Conversion of yellow solution to dark blue formazan by mitochondrial dehydrogenases of living cells was quantified by measuring absorbance at 560 nm.
HCMV inhibition was measured by luciferase activity of pp28-recombinant Towne and pp28 GCV-resistant Towne strains of HCMV (72 hpi) and by plaque reduction using HCMV Towne or TB40 (10 days). Viral protein expression was measured by Western blot.

Epstein Barr Virus (EBV) = experiment: Inhibition of lytic EBV replication in Akata cells, real-time PCR of BALF5; format: cell-based; settings: human gammaherpesvirus 4, IgG induction, real-time PCR at 48 hours, NA = Not active
Description: Inhibition of lytic Epstein Barr Virus (EBV) replication: Akata cells (0.5×10^6/well of 24-well plate) latently infected with EBV were induced with 100 μg/ml of goat antihuman IgG (Sigma). Compounds and GCV control were added to triplicate wells immediately after the addition of human IgG. Cells were collected 48 hours after lytic induction for DNA quantification. Cellular DNA was purified using Wizard SV Genomic Kit (Promega, Madison, WI). The effect of the compounds on lytic induction of EBV was analyzed by real-time PCR of the EBV DNA polymerase gene, BALF5^38.
(§1) Inhibition of other herpesviruses: Inhibition of herpes simplex 1 and 2 (HSV1, HSV2), Epstein Barr virus (EBV) and mouse CMV (MCMV) was tested with the five compounds. Plaque reductions assays were used for HSV1, HSV2 and MCMV. Inhibition of lytic EBV replication was measured by real-time PCR in AKATA cells following IgG induction. Only MLS8554 was active against HSV1, HSV2 and MCMV (Table 2).

HSV1 clinical isolate = experiment: Plaque reduction assay, HSV1 in Vero cells; format: cell-based, Human Herpesvirus 1; settings: Human alphaherpesvirus 1, Vero, read-out: EC50—HSV1-C1 (μM)
Text: (§2) Viruses and antiviral assays: A recombinant pp28-luciferase Towne HCMV strain expressing luciferase under the control of the UL99 (pp28) late promoter was reported to provide a highly-sensitive and reproducible reporter for drug screening^20. A GCV-resistant HCMV pp28-luciferase that contains a C607Y mutation in UL97 was reported^37. The HCMV TB40 strain was obtained from ATCC (VR-1578). Clinical isolates of Human Herpesvirus 1 and 2 (HSV1, HSV2) were collected from the Johns Hopkins Microbiology laboratory without identifiers that could link them to a specific patient. Mouse CMV (MCMV) Smith strain (ATCC VR-1399) was used for infection of MEFs.
(§3) Plaque reduction assay: HFFs were seeded into 12-well plates (2×10^5 cells/well) and infected with HCMV TB40 at approximately 100 plaques/well. After 90 min, media were aspirated, and DMEM containing 0.5% carboxymethyl-cellulose (CMC), 4% fetal bovine serum (FBS), and drugs were added into duplicate wells. Following incubation at 37° C. for 10-12 days the overlay was removed, and plaques were counted after crystal violet staining. For HSV1 and HSV2 replication in Vero cells, the adsorption time was 60 min and plaques were counted after 36 h. Plaque assays in MEFs were completed after 3 days.
as §1

[2] = tested on: pp28-luciferase Towne HCMV; experiment: Drug combination with GCV, pp28-luciferase Towne, Bliss model; format: cell-based, human cytomegalovirus; settings: Human betaherpesvirus 5, read-out: EC50 of Compound 1 (GCV), pp28-luciferase Towne, MOI=1, 72 hpi; one value per combination experiment
Description: (§4) Drug combination and analysis: These experiments were performed as previously reported^40. The combination of GCV and each compound was tested using the pp28-luciferase. Briefly, 2×10^6 HFFs/plate were seeded in 96-well plates and infected with the pp28-luciferase Towne HCMV strain (MOI=1). First, a dose response curve was generated for each drug individually to determine its EC50. Then, drugs were combined at twice their EC50, diluted in DMEM with 4% FBS, followed by serial dilution and added together after infection. Luciferase activity of the combination and each drug individually was quantified at 72 hpi. The combination of letermovir and each of the new compounds was tested by the plaque assay using TB40. The same principle applied in this assay for the drug combination effect, and plaques were counted at 8 dpi. The Bliss model was used to calculate the effect of each drug combination on pp28-luciferase activity and plaque reduction. In this model, drug combination represents the product of two probabilistically independent events as described in the following equation^41.
(§5) [formula] Where D is the drug concentration, m is the slope, and EC50 is the effective concentration resulting in 50% virus inhibition. The combined effect of two inhibitors (Fu, fractional unaffected) is computed as the product of individual effects of the two inhibitors, Fu1 and Fu2. If the ratio of observed fold inhibition divided by the expected fold inhibition is greater than 1, the compounds are synergistic. If the ratio is less than 1, the combination is considered antagonistic, and if it equals to 1 the combination is additive.
(§6) Pattern of drug combination with GCV and letermovir: The effect of each compound alone or in combination with GCV or letermovir was tested in HCMV-infected HFFs. […] For letermovir and its combination with each of the five compounds the EC50 was determined based on plaque assay. […] All other combinations and Bliss coefficients were measured by pp28- luciferase.

HCMV = experiment: Drug combination of GCV and 2955 by plaque assay, Bliss model; format: cell-based, human cytomegalovirus; settings: Human betaherpesvirus 5; combination experiment with NCGC2955, plaque assay; read-out: EC50 of Compound 1 (GCV)
Description: as §4, with “In this model, drug combination represents the product of two probabilistically independent events as described in the following equation^41.” left out
as §6

HSV2 clinical isolate = experiment: Plaque reduction assay, HSV2 in Vero cells; format: cell-based, Human Herpesvirus 2; settings: Human alphaherpesvirus 2, Vero, read-out: EC50—HSV2-C1 (μM)
Text: as §2, §3, §1

[3] = tested on: Mouse CMV (MCMV) Smith strain; experiment: Plaque assay, mouse CMV in MEFs; format: cell-based, mouse cytomegalovirus; settings: Murid betaherpesvirus 1; plaque reduction, MEFs; NA = Not active
Text: as §2, §3, §1

HCMV TB40 = experiment: Drug combination with letermovir, plaque assay TB40, Bliss model; format: cell-based, human cytomegalovirus; settings: Human betaherpesvirus 5, read-out: EC50 of Compound 1 (Letermovir)
Description: as §4, §5
Pattern of drug combination with GCV and letermovir: The effect of each compound alone or in combination with GCV or letermovir was tested in HCMV-infected HFFs. […] A ratio of observed fold inhibition divided by the expected fold inhibition of >1 was considered drug synergy, <1 as drug antagonism, and =1 as additive. For letermovir and its combination with each of the five compounds the EC50 was determined based on plaque assay. The combination of GCV and 2955 was also tested by plaque assay. All other combinations and Bliss coefficients were measured by pp28- luciferase.

Row | Molecule | inhibition of HCMV entry (pp65 nuclear staining), in words [1] | CC50 (in vitro) [nM] | EC50 (Epstein Barr Virus (EBV)) [nM] | EC50 (HSV1 clinical isolate) [µM] | EC50 [2] [nM] | EC50 (HCMV) [nM] | EC50 (HSV2 clinical isolate) [µM] | EC50 [3] [nM] | EC50 (HCMV TB40) [nM]
1 | Heparin | inhibited HCMV entry | – | – | – | – | – | – | – | –
2 | Nc1nc(O)c2ncn(COC(CO)CO)c2n1 [GCV, ganciclovir, reference compound] | did not affect pp65 nuclear staining | > 200000 | 5200 ± 400 | 0.04 | 1330 | 770 ± 80 | 0.58 | 960 ± 100 | –
3 | COc1cccc(N2CCN(C3=Nc4c(F)cccc4[C@H](CC(=O)O)N3c3cc(C(F)(F)F)ccc3OC)CC2)c1 [Letermovir, letermovir, reference compound] | – | – | – | – | – | – | – | – | 1.1
